{"source": "paper PMC10045663", "about": "“Synthesis, In Vitro Biological Evaluation of Antiproliferative and Neuroprotective Effects and In Silico Studies of Novel 16E-Arylidene-5α,6α-epoxyepiandrosterone Derivatives” (Biomedicines, 2023)", "key": {"[1]": {"tested_on": "T47-D cells (breast cancer)", "design": "method as in PMID 23635011", "settings": "MTT assay, read-out: IC50 against T47-D cells; cited from earlier work"}, "[2]": {"tested_on": "PNT1A (normal prostate cells)", "assay": "MTT cell proliferation assay, PNT1A cells", "assay_type": "cell-based", "settings": "72 h, non-tumoral cells, read-out: Estimated IC50, PNT1A", "description": "(§1) LNCaP, PC-3, MCF-7, PNT1A, N27, and NHDF cells were obtained from the American Type Culture Collection (ATCC; Manassas, VA, USA) and were cultured in 75 cm^2 culture flasks at 37 °C in a humidified air incubator with 5% CO2. LNCaP, PC-3, PNT1A, and N27 cells, respectively, were cultured in RPMI 1640 medium (Sigma-Aldrich, Inc. St. Louis, MO, USA) with 10% fetal bovine serum (FBS; Sigma-Aldrich, Inc. St. Louis, MO, USA) and 1% of the antibiotic mixture of 10,000 U/mL penicillin G and […] streptomycin (Sp, Sigma-Aldrich, Inc. St. Louis, MO, USA). MCF-7 cells were cultured in DMEM medium (Sigma-Aldrich, Inc. St. Louis, MO, USA) supplemented with 10% fetal bovine serum (FBS; Sigma-Aldrich, Inc. St. Louis, MO, USA) and 1% antibiotic/antimycotic (10,000 U/mL penicillin G, […] streptomycin, and 25 µg/mL amphotericin B: Ab, Sigma-Aldrich, Inc. St. Louis, MO, USA). Finally, NHDF cells were cultured in RPMI 1640 medium supplemented with 10% FBS, 2 mM L-glutamine, 10 mM HEPES, 1 mM sodium pyruvate, and 1% of the antibiotic/antimycotic Ab, and these cells were used in passages 10th to 14th. For all cell types, the medium was renewed every 2 days until cells nearly reached the confluence state. When cells reach approximately 90–95% confluence, they are gently detached by trypsinization (trypsin-EDTA solution: 0.125 g/L of trypsin and 0.02 g/L of EDTA). Before each experiment, viable cells were counted in a Neubauer chamber by a trypan-blue exclusion assay and adequately diluted in the appropriate complete cell culture medium.\n(§2) All tested compounds were dissolved in dimethyl sulfoxide (DMSO; Sigma-Aldrich, Inc. St. Louis, MO, USA) at a concentration of 10 mM and stored at 4 °C. From the mother-solutions, the diluted solutions of the compounds, in different concentrations, were prepared in the respective complete culture medium before each experiment.\n(§3) After reaching a confluence state, cells were trypsinized and counted by the trypan-blue exclusion assay and then seeded with an initial density of 2 × 10^4 cells/mL in 96-well culture plates (Nunc, Apogent, Denmark) and left to adhere and grow for 48 h. Subsequently, the medium was removed, and the cells were treated with compound solutions (10 and 50 µM for preliminary studies and 0.01, 0.1, 1, 10, 50, and 100 µM for concentration-response studies) in complete culture medium for 72 h. 5-Fluorouracil (5-FU) was used as a positive control, and untreated cells were used as the negative control. Compounds leading to cell proliferation relative to control clearly below 50%, at 10 µM, or clearly below 25%, at 50 µM, in the screening studies were selected to concentration-response studies in tumoral cell lines. Each experiment was performed in quadruplicate and independently at least two times. The in vitro antiproliferative effects were evaluated by the MTT assay (Sigma-Aldrich, Inc. St. Louis, MO, USA). After the incubation period, the medium was removed, and 100 µL of phosphate buffer saline (PBS, NaCl 137 mM; KCl 2.7 mM; Na2HPO4 10 mM; and KH2PO4 1.8 mM in deionized water with a pH adjusted to 7.4) were used to wash the cells. Then, 100 µL of the MTT solution (5 mg/mL) was prepared in the appropriate serum-free medium and added to each well, followed by incubation for 4 h at 37 °C. Hereafter, the MTT containing medium was removed, and the formazan crystals were dissolved in DMSO. Then, the absorbance was measured at 570 nm using a xMarkTM microplate spectrophotometer from BIO-RAD Laboratories. Cell viability values were expressed as percentages relative to the negative control."}, "[3]": {"tested_on": "MCF-7 cells (estrogen-responsive breast cancer cells)", "assay": "MTT cell proliferation assay, MCF-7 cells", "assay_type": "cell-based", "settings": "MTT, 72 h, tumoral cells; read-out: Estimated IC50, MCF-7", "description": "as §1, §2, §3"}, "N27 cells [4]": {"tested_on": "N27 cells", "assay": "Neuroprotection against 6-OHDA-induced toxicity (MTT)", "assay_type": "cell-based, rat", "settings": "24 h; for protection against 6-OHDA-induced neurotoxicity: 10 and 50 µM together with 50 µM 6-OHDA", "description": "(§4) The immortalized rat mesencephalic dopaminergic cell line (N27 cells; a kind gift from Dr. Yoon-Seong Kim, Burnett School of Biomedical Sciences, University of Central Florida) was grown in Roswell Park Memorial Institute (RPMI) 1640 medium (Sigma-Aldrich) containing 2 g/L sodium bicarbonate, 10% fetal bovine serum (FBS; Millipore), and 1 mL/L of penicillin/streptomycin (GIBCO) in a humidified atmosphere of 5% CO2 at 37 °C. Cells were plated at a density of 0.31 × 10^5 cells per cm^2 in 96-well culture plates. In the MTT assay, N27 cells were incubated in the presence of several compounds with 50 μM of 6-OHDA. To assess cell viability, MTT reduction was performed as previously described (Section 2.3) with some modifications. Briefly, after 24 h of cell treatments, 0.5 mg/mL of MTT was added to cells for 4 h at 37 °C. Then, the resultant precipitate was dissolved in 10% SDS and quantified at a wavelength of 570 nm."}, "N27 cells [5]": {"tested_on": "N27 cells", "assay": "N27 cell viability after 24 h (MTT), substance alone", "assay_type": "cell-based, rat", "settings": "for effect on N27 cell viability: 10 µM alone; for fold-increase in cell viability compared to 10 µM of the respective compound / fold-increase in cell viability compared to the control: 50 µM alone", "description": "as §4, with “In the MTT assay, N27 cells were incubated in the presence of several compounds with 50 μM of 6-OHDA.” left out"}, "[6]": {"tested_on": "NHDF cells (normal human dermal fibroblasts)", "assay": "MTT cell proliferation assay, NHDF cells", "assay_type": "cell-based", "settings": "72 h, non-tumoral cells, read-out: Estimated IC50, NHDF", "description": "as §1, §2, §3"}, "[7]": {"tested_on": "N27 (rat dopaminergic neuronal cells)", "assay": "MTT cell proliferation assay, N27 cells", "assay_type": "cell-based", "settings": "72 h, non-tumoral cells, read-out: Estimated IC50, N27", "description": "as §1, §2, §3"}, "[8]": {"tested_on": "PC-3 cells (androgen-independent prostatic cancer)", "assay": "MTT cell proliferation assay, PC-3 cells", "assay_type": "cell-based", "settings": "PC-3, 50 µM, 72 h", "description": "as §1, §2, §3"}, "[9]": {"tested_on": "LNCaP cells (androgen-dependent prostatic cancer)", "assay": "MTT cell proliferation assay, LNCaP cells", "assay_type": "cell-based", "settings": "72 h", "description": "as §1, §2, §3"}, "[10]": {"tested_on": "all cell lines (NHDF, PNT1A, N27, LNCaP, PC-3, MCF-7)", "assay": "MTT preliminary screening, all cell lines taken together", "assay_type": "cell-based", "settings": "50 µM, 72 h", "description": "as §1, §2, §3"}}, "note": "pIC50: −log10 of the molar value. Entries after “also recorded” stand apart in the source; their conditions may differ."}
{"smiles": "CC12CCC3C(CC=C4CC(O)CCC43C)C1C/C(=C\\c1ccc([N+](=O)[O-])cc1)C2=O", "note": "(stereo not drawn) [Compound 4, (E)-16-(4-Nitrobenzylidene)-3-hydroxy-10,13-dimethyl-1,3,4,7,8,9,10,11,12,13,15,16-dodecahydro-2H-cyclopenta[α]phenanthren-17(14H)-one]", "values": [{"measurement": "pIC50", "setting": "[1]", "value": "< 4.00"}]}
{"smiles": "CC12CCC3C(CC=C4CC(O)CCC43C)C1C/C(=C\\c1ccc(Cl)cc1Cl)C2=O", "note": "(stereo not drawn) [Compound 9, (E)-16-(2,4-Dichlorobenzylidene)-3-hydroxy-10,13-dimethyl-1,3,4,7,8,9,10,11,12,13,15,16-dodecahydro-2H-cyclopenta[α]phenanthren-17(14H)-one]", "values": [{"measurement": "pIC50", "setting": "[1]", "value": "< 4.00"}]}
{"smiles": "CC12CCC3C(CC4OC45CC(O)CCC35C)C1CC(=Cc1ccc([N+](=O)[O-])cc1)C2=O", "note": "(stereo not drawn) [Compound 17, (E)-16-(4-Nitrobenzylidene)-3-hydroxy-5α ,6α -epoxy-10,13-dimethyl-1,3,4,7,8,9,10,11,12,13,15,16-dodecahydro-2H-cyclopenta[α ]phenanthren-17(14H)-one]", "values": [{"measurement": "pIC50", "setting": "[2]", "value": "< 4.00"}, {"measurement": "pIC50", "setting": "[3]", "value": 4.68}, {"measurement": "protection against 6-OHDA-induced neurotoxicity", "setting": "N27 cells [4]", "value": "did not counteract; also recorded: no significant neuroprotection"}, {"measurement": "effect on N27 cell viability", "setting": "N27 cells [5]", "value": "did not affect cell viability"}, {"measurement": "fold-increase in cell viability compared to 10 µM of the respective compound", "setting": "N27 cells [5]", "value": 1.59, "unit": "fold"}, {"measurement": "fold-increase in cell viability compared to the control", "setting": "N27 cells [5]", "value": 1.53, "unit": "fold"}, {"measurement": "pIC50", "setting": "[6]", "value": 4.49}, {"measurement": "pIC50", "setting": "[7]", "value": "< 4.00"}]}
{"smiles": "C[C@]12CC[C@H]3[C@@H](C[C@@H]4O[C@@]45C[C@@H](O)CC[C@]35C)[C@@H]1C/C(=C\\c1ccco1)C2=O", "note": "[Compound 20, (E)-16-(Furan-2-ylmethylene)-3-hydroxy-5α ,6α -epoxy-10,13-dimethyl-1,3,4,7,8,9,10,11,12,13,15,16-dodecahydro-2H-cyclopenta[α ]phenanthren-17(14H)-one]", "values": [{"measurement": "pIC50", "setting": "[2]", "value": 4.25}, {"measurement": "protection against 6-OHDA-induced neurotoxicity", "setting": "N27 cells [4]", "value": "did not counteract; also recorded: no significant neuroprotection"}, {"measurement": "effect on N27 cell viability", "setting": "N27 cells [5]", "value": "did not affect cell viability"}, {"measurement": "pIC50", "setting": "[6]", "value": 4.30}, {"measurement": "pIC50", "setting": "[7]", "value": 4.19}, {"measurement": "decrease on cell proliferation relative to the control", "setting": "[8]", "value": "higher than 75%"}]}
{"smiles": "CC12CCC3C(CC4OC45CC(O)CCC35C)C1CC(=Cc1ccc(Cl)o1)C2=O", "note": "(stereo not drawn) [Compound 27, (E)-16-[(5-Chlorofuran-2-yl)methylene]-3-hydroxy-5α ,6α -epoxy-10,13-dimethyl-1,3,4,7,8,9,10,11,12,13,15,16-dodecahydro-2H-cyclopenta[α ]phenanthren-17(14H)-one]", "values": [{"measurement": "pIC50", "setting": "[2]", "value": 4.71}, {"measurement": "pIC50", "setting": "[3]", "value": 4.24}, {"measurement": "fold-decrease in cell viability compared to 6-OHDA alone", "setting": "N27 cells [4]; 50 µM together with 50 µM 6-OHDA", "value": 0.9, "unit": "fold"}, {"measurement": "protection against 6-OHDA-induced neurotoxicity", "setting": "N27 cells [4]", "value": "did not counteract; also recorded: no significant neuroprotection"}, {"measurement": "effect on LNCaP cell proliferation", "setting": "[9]; LNCaP, 10 µM", "value": "no relevant effects"}, {"measurement": "decrease in LNCaP cell proliferation", "setting": "[9]; LNCaP, 50 µM", "value": "higher than 75%"}, {"measurement": "pIC50", "setting": "[9]; MTT, tumoral cells, read-out: Estimated IC50, LNCaP", "value": 4.80}, {"measurement": "effect on N27 cell viability", "setting": "N27 cells [5]", "value": "did not affect cell viability"}, {"measurement": "fold-increase in cell viability compared to 10 µM of the respective compound", "setting": "N27 cells [5]", "value": 1.41, "unit": "fold"}, {"measurement": "fold-increase in cell viability compared to the control", "setting": "N27 cells [5]", "value": 1.25, "unit": "fold"}, {"measurement": "pIC50", "setting": "[6]", "value": 4.74}, {"measurement": "relative cell proliferation", "setting": "[10]", "value": "≤ 50", "unit": "%"}, {"measurement": "pIC50", "setting": "[7]", "value": 4.37}]}
